Assay results taken from patent US4480030A, “Tripeptide derivatives and their application in assaying enzymes” (Pentapharm A.G., priority 1980, dated 1984).
Square brackets hold non-standard residues; d marks the D form. Peptide text beside a SMILES is read from it. * marks the point of attachment. dAad = N[C@H](CCCC(=O)O)C(=O)O; pNA = O=[N+]([O-])c1ccc(N*)cc1; Cbz = O=C(OCc1ccccc1)*

How the values were obtained:
human factor Xa = target: T1, human factor Xa (Homo sapiens, UniProt P00742); test: Activity of factor Xa obtained by RVV activation of factor X in normal human blood plasma on substrate (split product H-R5 released); type: biochemical; conditions: substrate concentration 2 × 10^-4; TRIS-imidazole buffer pH 8.4, ionic strength 0.3, 37° C.; citrated plasma activated with Russel viper venom 75 seconds; value calculated for 1 ml of citrated plasma
T1 construct: from tissue
Description: (§1) The values of the factor Xa activity given in Table 4 were determined experimentally in the manner described hereinafter:
For determining the activity of human factor Xa 0.01 ml of normal citrated plasma was mixed with 0.20 ml of a solution of Russel viper venom in TRIS-imidazole buffer having a pH of 8.4 and an ionic strength of 0.3 and containing 15 mmoles of CaCl2 […]. The mixture was incubated for 75 seconds at 37° C. in order to activate factor X present in the plasma and convert it completely into factor Xa. To the incubate there was added first 1.40 ml of TRIS-imidazole buffer (pH 8.4, ionic strength 0.3) heated to 37° C. and then 0.40 ml of a 2×10^-3 M aqueous solution of a substrate of the invention. Thereafter, the quantity of split produce H--R^5 in nanomoles released per minute was determined, and the corresponding value for 1 ml of citrated plasma was calculated.

bovine factor Xa = target: T2, bovine factor Xa (Bos taurus, UniProt P00743); test: Activity of bovine factor Xa solution on chromogenic/fluorogenic substrate (split product H-R5 released); type: biochemical; conditions: substrate concentration 2 × 10^-4; TRIS-imidazole buffer pH 8.4, ionic strength 0.3, 37° C.; factor Xa preparation "Diagen"; value calculated for 1 ml of factor Xa solution
T2 construct: purchased Diagnostic Reagents Ltd., Thame, Great Britain factor Xa preparation "Diagen"
Description: as §1
For determining the activity of bovine factor Xa 1.8 ml of TRIS-imidazole buffer having a pH of 8.4 and an ionic strength of 0.3 was well mixed at 37° C. with 0.025 ml of an aqueous solution of factor Xa preparation "Diagen" (furnisher: Diagnostic Reagents Ltd., Thame, Great Britain) obtained by dissolving the contents of one vial in 0.5 ml of water. To the mixture there was added 0.2 ml of a 2×10^-3 M aqueous solution of a substrate of the invention. Thereafter, the quantity of split product H--R^5 in nanomoles released per minute was determined, and the corresponding value of 1 ml of factor Xa solution was calculated.

T1 sequence (P00742 235-488 limits assumed): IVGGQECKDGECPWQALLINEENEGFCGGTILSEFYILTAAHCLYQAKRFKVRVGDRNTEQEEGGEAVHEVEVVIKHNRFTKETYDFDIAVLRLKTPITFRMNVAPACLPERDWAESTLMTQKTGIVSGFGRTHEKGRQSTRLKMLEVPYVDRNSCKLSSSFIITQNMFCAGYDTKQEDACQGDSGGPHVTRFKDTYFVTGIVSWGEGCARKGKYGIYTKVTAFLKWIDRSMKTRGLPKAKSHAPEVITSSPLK
T1 sequence (P00742 41-179 partner limits assumed): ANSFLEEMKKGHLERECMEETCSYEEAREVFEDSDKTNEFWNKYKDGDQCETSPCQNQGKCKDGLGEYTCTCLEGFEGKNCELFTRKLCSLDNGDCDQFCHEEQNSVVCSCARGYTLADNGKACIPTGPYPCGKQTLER
T2 sequence (P00743 234-492 limits assumed): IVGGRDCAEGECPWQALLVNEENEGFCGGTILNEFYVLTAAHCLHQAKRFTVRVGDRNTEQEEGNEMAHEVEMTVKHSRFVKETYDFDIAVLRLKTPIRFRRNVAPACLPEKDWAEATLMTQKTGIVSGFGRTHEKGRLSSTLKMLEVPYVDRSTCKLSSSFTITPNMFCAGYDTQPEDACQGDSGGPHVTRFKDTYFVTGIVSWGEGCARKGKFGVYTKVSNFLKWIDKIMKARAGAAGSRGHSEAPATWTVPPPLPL
T2 sequence (P00743 41-180 partner limits assumed): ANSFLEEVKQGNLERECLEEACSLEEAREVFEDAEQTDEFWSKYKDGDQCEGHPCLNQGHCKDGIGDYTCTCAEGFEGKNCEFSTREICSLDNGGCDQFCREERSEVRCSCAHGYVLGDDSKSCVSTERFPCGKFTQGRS

| Molecule | Activity of factor Xa as obtained by activation of factor X in 1 ml of normal human blood plasma by means of RVV, expressed in nanomoles of split product H--R^5 released per minute (human factor Xa) | Activity of 1 ml of aqueous solution of bovine factor Xa, expressed in nanomoles of split product H--R^5 released per minute (bovine factor Xa) |
| --- | --- | --- |
| BOC--D-(α)-AOA--Gly--Arg--pNA.AcOH [Example 84] | 1690 nanomoles of split product H-- | 2210 nanomoles of split product H-- |
| 4-Aminomethyl-cyclohexyl-carbonyl-bonyl-D-Leu--Sar--Arg--pNA.2HBr [Example 43] | 30 nanomoles of split product H-- | 60 nanomoles of split product H-- |
| Cbo--4-aminomethyl-cyclohexyl-carbonyl-D-Leu--176 Sar--Arg--pNA.HBr [Example 42] | 20 nanomoles of split product H-- | 30 nanomoles of split product H-- |
| 2-(4-Cbo-- amino)-phenylacetyl-D-Nval--Gly--Arg--pNA.HBr [Example 53] | 510 nanomoles of split product H-- | 680 nanomoles of split product H-- |
| N=C(N)NCCC[C@H](NC(=O)CNC(=O)[C@@H](CCCC(=O)O)NC(=O)OCc1ccccc1)C(=O)Nc1ccc([N+](=O)[O-])cc1 [Example 102, Cbo--D-Aadi--Gly--Arg--pNA] (Cbz-[dAad]-Gly-Arg-pNA) | 905 nanomoles of split product H-- | 1030 nanomoles of split product H-- |
| N=C(N)NCCC[C@H](NC(=O)CNC(=O)[C@@H](CCC(=O)O)NC(=O)OCc1ccccc1)C(=O)Nc1ccc([N+](=O)[O-])cc1 [Example 96, Cbo--D-Glu--Gly--Arg--pNA] (Cbz-[dE]-Gly-Arg-pNA) | 505 nanomoles of split product H-- | 830 nanomoles of split product H-- |
